Results taken from the NIST ThermoML archive (doi:10.1021/je700438d).

Assay: mn = molality of the nth substance listed, in mol/kg
Conditions: Liquid, Vibrating tube method

[Cl-].[Li+] [lithium chloride] + CCO
Conditions | mass density [kg/m3]
348.15 K, 20090 kPa, m1 = 0.3023 | 772.2
348.15 K, 20140 kPa, m1 = 1.222 | 800.25
348.15 K, 20480 kPa, m1 = 0.5873 | 781.78
348.15 K, 25070 kPa, m1 = 1.222 | 804.33
348.15 K, 25320 kPa, m1 = 0.5873 | 786.04
348.15 K, 25420 kPa, m1 = 2.022 | 826.11
348.15 K, 25640 kPa, m1 = 2.88 | 846.96
348.15 K, 25840 kPa, m1 = 0.1049 | 770.86
348.15 K, 25860 kPa, m1 = 0.3023 | 777.45
348.15 K, 30060 kPa, m1 = 0.3023 | 781.03
348.15 K, 30160 kPa, m1 = 2.022 | 829.46
348.15 K, 30410 kPa, m1 = 1.222 | 808.41
348.15 K, 30610 kPa, m1 = 0.5873 | 790.37
348.15 K, 30710 kPa, m1 = 0.1049 | 775.12
348.15 K, 30840 kPa, m1 = 2.88 | 850.58
348.15 K, 35190 kPa, m1 = 2.88 | 853.39
348.15 K, 35240 kPa, m1 = 0.1049 | 778.84
348.15 K, 35420 kPa, m1 = 1.222 | 811.91
348.15 K, 35610 kPa, m1 = 2.022 | 832.94
348.15 K, 35840 kPa, m1 = 0.3023 | 785.62
348.15 K, 35840 kPa, m1 = 0.5873 | 794.33
348.15 K, 39860 kPa, m1 = 0.5873 | 797.14
348.15 K, 39860 kPa, m1 = 2.88 | 856.19
348.15 K, 39930 kPa, m1 = 0.1049 | 782.45
348.15 K, 39940 kPa, m1 = 0.3023 | 788.64
348.15 K, 39960 kPa, m1 = 2.022 | 835.44
348.15 K, 39970 kPa, m1 = 1.222 | 814.81
373.15 K, 290 kPa, m1 = 0.1049 | 717.74
373.15 K, 310 kPa, m1 = 0.3023 | 725.29
373.15 K, 320 kPa, m1 = 2.022 | 781.71
373.15 K, 840 kPa, m1 = 1.222 | 757.56
373.15 K, 960 kPa, m1 = 0.5873 | 736.55
373.15 K, 980 kPa, m1 = 2.88 | 805.91
373.15 K, 5060 kPa, m1 = 0.3023 | 731.82
373.15 K, 5060 kPa, m1 = 1.222 | 762.98
373.15 K, 5140 kPa, m1 = 0.1049 | 724.52
373.15 K, 5140 kPa, m1 = 2.88 | 810.39
373.15 K, 5420 kPa, m1 = 0.5873 | 742.51
373.15 K, 5860 kPa, m1 = 2.022 | 788.43
373.15 K, 9980 kPa, m1 = 2.88 | 815.52
373.15 K, 10060 kPa, m1 = 1.222 | 769.02
373.15 K, 10070 kPa, m1 = 0.3023 | 738.32
373.15 K, 10080 kPa, m1 = 0.1049 | 731.05
373.15 K, 10090 kPa, m1 = 0.5873 | 748.41
373.15 K, 10090 kPa, m1 = 2.022 | 793.18
373.15 K, 14620 kPa, m1 = 2.88 | 819.69
373.15 K, 15020 kPa, m1 = 0.3023 | 744.36
373.15 K, 15420 kPa, m1 = 0.1049 | 737.69
373.15 K, 15720 kPa, m1 = 2.022 | 799
373.15 K, 15740 kPa, m1 = 1.222 | 775.35
373.15 K, 15850 kPa, m1 = 0.5873 | 755.19
373.15 K, 20080 kPa, m1 = 0.1049 | 743.13
373.15 K, 20090 kPa, m1 = 0.5873 | 759.84
373.15 K, 20310 kPa, m1 = 0.3023 | 750.38
373.15 K, 20310 kPa, m1 = 2.022 | 803.31
373.15 K, 20340 kPa, m1 = 1.222 | 780.06
373.15 K, 21420 kPa, m1 = 2.88 | 825.53
373.15 K, 24940 kPa, m1 = 2.88 | 828.37
373.15 K, 25050 kPa, m1 = 2.022 | 807.37
373.15 K, 25080 kPa, m1 = 1.222 | 784.55
373.15 K, 25410 kPa, m1 = 0.1049 | 748.94
373.15 K, 25410 kPa, m1 = 0.3023 | 755.77
373.15 K, 25840 kPa, m1 = 0.5873 | 765.68
373.15 K, 30060 kPa, m1 = 0.3023 | 760.33
373.15 K, 30060 kPa, m1 = 2.022 | 811.2
373.15 K, 30150 kPa, m1 = 0.5873 | 769.7
373.15 K, 30150 kPa, m1 = 2.88 | 832.41
373.15 K, 30260 kPa, m1 = 0.1049 | 753.85
373.15 K, 30410 kPa, m1 = 1.222 | 789.12
373.15 K, 35160 kPa, m1 = 0.3023 | 764.94
373.15 K, 35410 kPa, m1 = 2.022 | 814.8
373.15 K, 35740 kPa, m1 = 2.88 | 836.3
373.15 K, 35840 kPa, m1 = 0.1049 | 759.05
373.15 K, 35840 kPa, m1 = 1.222 | 793.28
373.15 K, 35980 kPa, m1 = 0.5873 | 774.65
373.15 K, 39820 kPa, m1 = 1.222 | 796.01
373.15 K, 39910 kPa, m1 = 0.1049 | 762.54
373.15 K, 39960 kPa, m1 = 0.3023 | 768.9
373.15 K, 39970 kPa, m1 = 0.5873 | 777.73
373.15 K, 39970 kPa, m1 = 2.022 | 817.45
373.15 K, 39980 kPa, m1 = 2.88 | 839.22
398.15 K, 680 kPa, m1 = 0.3023 | 696.61
398.15 K, 740 kPa, m1 = 0.1049 | 688.68
398.15 K, 740 kPa, m1 = 2.022 | 758.72
398.15 K, 960 kPa, m1 = 1.222 | 731.58
398.15 K, 1010 kPa, m1 = 2.88 | 785.44
398.15 K, 1020 kPa, m1 = 0.5873 | 708.33
398.15 K, 4860 kPa, m1 = 1.222 | 737.73
398.15 K, 5010 kPa, m1 = 0.1049 | 695.99
398.15 K, 5030 kPa, m1 = 2.022 | 765.06
398.15 K, 5070 kPa, m1 = 0.3023 | 704.02
398.15 K, 5070 kPa, m1 = 2.88 | 790.37
398.15 K, 5740 kPa, m1 = 0.5873 | 716.08
398.15 K, 9680 kPa, m1 = 1.222 | 744.82
398.15 K, 10060 kPa, m1 = 0.3023 | 711.93
398.15 K, 10060 kPa, m1 = 0.5873 | 722.74
398.15 K, 10140 kPa, m1 = 2.88 | 796.07
398.15 K, 10420 kPa, m1 = 2.022 | 772.34
398.15 K, 10450 kPa, m1 = 0.1049 | 704.75
398.15 K, 15060 kPa, m1 = 1.222 | 752.07
398.15 K, 15060 kPa, m1 = 2.022 | 778
398.15 K, 15090 kPa, m1 = 0.3023 | 719.36
398.15 K, 15280 kPa, m1 = 2.88 | 801.31
398.15 K, 15420 kPa, m1 = 0.1049 | 712.2
398.15 K, 15960 kPa, m1 = 0.5873 | 731.15
398.15 K, 20010 kPa, m1 = 2.88 | 805.83
398.15 K, 20090 kPa, m1 = 0.1049 | 718.73
398.15 K, 20140 kPa, m1 = 0.3023 | 726.27
398.15 K, 20350 kPa, m1 = 0.5873 | 736.9
398.15 K, 20470 kPa, m1 = 1.222 | 758.65
398.15 K, 20740 kPa, m1 = 2.022 | 784.18
398.15 K, 25230 kPa, m1 = 0.3023 | 732.68
398.15 K, 25320 kPa, m1 = 2.88 | 810.7
398.15 K, 25420 kPa, m1 = 0.5873 | 742.99
398.15 K, 25610 kPa, m1 = 2.022 | 788.8
398.15 K, 25620 kPa, m1 = 1.222 | 764.26
398.15 K, 25840 kPa, m1 = 0.1049 | 726.13
398.15 K, 30050 kPa, m1 = 0.5873 | 748.05
398.15 K, 30070 kPa, m1 = 0.3023 | 738.24
398.15 K, 30070 kPa, m1 = 2.88 | 814.57
398.15 K, 30090 kPa, m1 = 2.022 | 792.51
398.15 K, 30150 kPa, m1 = 0.1049 | 731.22
398.15 K, 30410 kPa, m1 = 1.222 | 768.9
398.15 K, 34950 kPa, m1 = 0.5873 | 752.88
398.15 K, 34980 kPa, m1 = 2.88 | 818
398.15 K, 35240 kPa, m1 = 0.3023 | 743.62
398.15 K, 35810 kPa, m1 = 2.022 | 796.49
398.15 K, 35860 kPa, m1 = 0.1049 | 737.37
398.15 K, 35950 kPa, m1 = 1.222 | 773.57
398.15 K, 39860 kPa, m1 = 0.1049 | 741.26
398.15 K, 39920 kPa, m1 = 0.5873 | 757.22
398.15 K, 39940 kPa, m1 = 1.222 | 776.48
398.15 K, 39940 kPa, m1 = 2.022 | 798.83
398.15 K, 39970 kPa, m1 = 0.3023 | 748.04
398.15 K, 39980 kPa, m1 = 2.88 | 821.9
